# According to US20230099344A1, “COMPOUNDS AND METHODS FOR THE TARGETED DEGRADATION OF IRAK-4” (Arvinas Operations, Inc., priority 2021, published 2023):
# Key:
# Format in all cases: cell-based
# [1] = test system: IL6; assay: LPS stimulated IL6 inhibition assay in PBMC; conditions: human PBMCs, LPS stimulation, compound overnight, IL6 by MSD after 24 hrs; for Dmax: read-out: LPS Stim IL6 inhibition Dmax; for IC50: read-out: LPS stim IL6 inhibition IC50
# Summary of the method: (§1)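 Primary human PBMCs plated at 2.0×10^6 cells/mL are incubated with compound overnight. Stimulation follows using the donor's EC50 concentration of agonist. MSD detects secreted IL6/IL8 at 24 hrs.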
# [2] = test system: IL6; assay: R848 stimulated IL6 inhibition assay in PBMC; conditions: human PBMCs, R848 stimulation, compound overnight, IL6 by MSD after 24 hrs; for Dmax: Homo sapiens, 24 h, read-out: R848 stim IL6 inhibition Dmax; for IC50: read-out: R848 stim IL6 inhibition IC50
# Summary of the method: as §1
# [3] = biological target: T1, IRAK-4 (Homo sapiens, UniProt Q9NWZ3); assay: IRAK-4 ELISA, PBMC degradation; set-up: endogenous in cells; host or cells: PBMC; conditions: treated overnight
# T1 sequence (Q9NWZ3 1-460): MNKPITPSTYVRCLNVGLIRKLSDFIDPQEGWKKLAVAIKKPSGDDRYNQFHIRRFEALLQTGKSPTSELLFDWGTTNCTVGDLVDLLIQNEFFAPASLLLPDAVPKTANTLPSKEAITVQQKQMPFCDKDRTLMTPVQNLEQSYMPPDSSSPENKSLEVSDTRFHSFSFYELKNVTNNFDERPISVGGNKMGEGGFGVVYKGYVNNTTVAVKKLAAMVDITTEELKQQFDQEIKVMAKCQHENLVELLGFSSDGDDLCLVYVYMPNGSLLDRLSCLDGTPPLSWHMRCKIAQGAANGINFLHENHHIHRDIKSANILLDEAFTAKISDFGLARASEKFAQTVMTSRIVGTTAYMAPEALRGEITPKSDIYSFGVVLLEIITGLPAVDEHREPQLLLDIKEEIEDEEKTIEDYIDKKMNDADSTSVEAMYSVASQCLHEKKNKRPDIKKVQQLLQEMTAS
# Summary of the method: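 OCI-Ly10 cells (seeded at 1×10^6/ml) or human PBMC (seeded at 2×10^6/ml) were treated with compound on the day of seeding and incubated overnight. Lysates were then assayed for remaining IRAK-4 protein by sandwich ELISA with a matched antibody pair.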
"IC50 ([1]; Homo sapiens, PBMC, 24 h) [nM]",IC50 ([2]; PBMC) [nM],DC50 [3] [nM],Dmax [3] [%],PBMC DC90 [3],IC50 [1] [nM],IC50 [2] [nM],PBMC Dmax [3],SMILES,"Dmax ([1]; Homo sapiens, PBMC, 24 h) [%]",Dmax ([2]; PBMC) [%],LPS Stim IL6 inhibition Dmax [1],R848 stim IL6 inhibition Dmax [2]
< 10,10 to 50,1 to 5,≥ 90,A (A represents a DC90 value <10.0 nM),–,–,–,CC(C)Oc1cc2c(cc1NC(=O)c1cnn3cccnc13)CN([C@H]1CC[C@H](N(C)CC3(F)CN(c4ccc5c(c4)C(=O)N(C4CCC(=O)NC4=O)C5=O)C3)CC1)C2=O (stereo partly drawn) [Example 365],< 70,≥ 90,–,–
10 to 50,10 to 50,1 to 5,≥ 90,A (A represents a DC90 value <10.0 nM),–,–,–,CCN(C1CN(c2ccc(C(=O)NC3CCC(=O)NC3=O)c(F)c2)C1)[C@H]1CC[C@H](n2cc3cc(NC(=O)c4cnn5cccnc45)c(OCC4CC4)cc3n2)CC1 (stereo partly drawn) [Example 369],< 70,≥ 90,–,–
50 to 100,50 to 100,≥ 10,70 to 80,D (D represents a DC90 value ≥50 nM),–,–,–,CC1(CN2CCC(n3cc4cc(NC(=O)c5cnn6cccnc56)c(OCC5CC5)cc4n3)CC2)CN(c2cc3c(cc2F)C(=O)N(C2CCC(=O)NC2=O)C3=O)C1 (stereo not drawn) [Example 222],70 to 80,≥ 90,–,–
50 to 100,50 to 100,≥ 10,≥ 90,D (D represents a DC90 value ≥50 nM),–,–,–,O=C1CCC(N2C(=O)c3ccc(N4CC[C@@H](O[C@H]5CC[C@H](n6cc7cc(NC(=O)c8cnn9cccnc89)c(OCC8CC8)cc7n6)CC5)C4)cc3C2=O)C(=O)N1 (stereo partly drawn) [Example 426],< 70,80 to 90,–,–
50 to 100,50 to 100,≥ 10,–,D (D represents a DC90 value ≥50 nM),–,–,–,O=C1CCC(N2C(=O)c3ccc(N4CC[C@@H](O[C@H]5CC[C@@H](n6cc7cc(NC(=O)c8cnn9cccnc89)c(OCC8CC8)cc7n6)CC5)C4)cc3C2=O)C(=O)N1 (stereo partly drawn) [Example 425],70 to 80,70 to 80,–,–
10 to 50,10 to 50,1 to 5,80 to 90,A (A represents a DC90 value <10.0 nM),–,–,–,O=C1CCC(N2C(=O)c3ccc(N4CC(F)(CN5CCC(n6cc7cc(NC(=O)c8cnn9cccnc89)c(OCC(F)F)cc7n6)CC5)C4)cc3C2=O)C(=O)N1 (stereo not drawn) [Example 231],80 to 90,≥ 90,–,–
< 10,10 to 50,< 1,≥ 90,A (A represents a DC90 value <10.0 nM),–,–,–,CN([C@H]1CC[C@H](n2cc3cc(NC(=O)c4cnn5cccnc45)c(OCC4CC4)cc3n2)CC1)[C@H]1C[C@H](Oc2ccc3c(c2)C(=O)N(C2CCC(=O)NC2=O)C3=O)C1 (stereo partly drawn) [Example 372],80 to 90,≥ 90,–,–

# Further lines, the molecule ahead of its results:
SMILES,"IC50 ([1]; Homo sapiens, PBMC, 24 h) [nM]",IC50 ([2]; PBMC) [nM],DC50 [3] [nM],Dmax [3] [%],PBMC DC90 [3],IC50 [1] [nM],IC50 [2] [nM],PBMC Dmax [3],"Dmax ([1]; Homo sapiens, PBMC, 24 h) [%]",Dmax ([2]; PBMC) [%],LPS Stim IL6 inhibition Dmax [1],R848 stim IL6 inhibition Dmax [2]
CC(C)Oc1nc2c(cc1NC(=O)c1cnn3cccnc13)CN(C1CCN(CC3CN(c4ccc(C(=O)NC5CCC(=O)NC5=O)c(F)c4)C3)CC1)C2=O (stereo not drawn) [Example 402],10 to 50,10 to 50,< 1,≥ 90,A (A represents a DC90 value <10.0 nM),–,–,–,< 70,80 to 90,–,–
O=C1CCC(N2C(=O)c3ccc(N4CC(F)(CN5CCC(N6Cc7cc(NC(=O)c8cnn9cccnc89)c(N8CCC(N9CCC9)CC8)cc7C6=O)CC5)C4)cc3C2=O)C(=O)N1 (stereo not drawn) [Example 116],< 10,< 10,1 to 5,≥ 90,B (B represents a DC90 value ≥10.0 nM and <25.0 nM),–,–,–,80 to 90,≥ 90,–,–
CN(C1CCN(c2ccc3c(c2)C(=O)N(C2CCC(=O)NC2=O)C3=O)CC1)[C@H]1CC[C@H](N2Cc3cc(NC(=O)c4cnn5cccnc45)c(N4CCN(CC(F)F)CC4)cc3C2=O)CC1 (stereo partly drawn) [Example 371],10 to 50,10 to 50,< 1,≥ 90,B (B represents a DC90 value ≥10.0 nM and <25.0 nM),–,–,–,70 to 80,≥ 90,–,–
CC(C)Oc1cc2c(cc1NC(=O)c1cnn3cccnc13)CN(C1CCN(CC3CCN(c4ccc5c(c4)C(=O)N([C@H]4CCC(=O)NC4=O)C5=O)CC3)CC1)C2=O [Example 48],10 to 50,10 to 50,< 1,≥ 90,A (A represents a DC90 value <10.0 nM),–,–,–,70 to 80,≥ 90,–,–
O=C1CCC(N2C(=O)c3ccc(N4CC5(C4)CN([C@H]4CC[C@H](n6cc7cc(NC(=O)c8cnn9cccnc89)c(OCC8CC8)cc7n6)CC4)C5)cc3C2=O)C(=O)N1 (stereo partly drawn) [Example 360],< 10,< 10,1 to 5,≥ 90,B (B represents a DC90 value ≥10.0 nM and <25.0 nM),–,–,–,80 to 90,≥ 90,–,–
CC(C)Oc1cc2c(cc1NC(=O)c1cnn3cccnc13)CN(C1CCN(CC3(F)CN(c4ccc5c(c4)C(=O)N(C4CCC(=O)NC4=O)C5)C3)CC1)C2=O (stereo not drawn) [Example 106],≥ 100,10 to 50,1 to 5,≥ 90,A (A represents a DC90 value <10.0 nM),–,–,–,80 to 90,≥ 90,–,–
O=C1CCC(NC(=O)c2cc(N3CC(CN4CCC(n5cc6cc(NC(=O)c7cnn8cccnc78)c(OCC7CC7)cc6n5)CC4)C3)ccc2F)C(=O)N1 (stereo not drawn) [Example 306],≥ 100,≥ 100,≥ 10,70 to 80,D (D represents a DC90 value ≥50 nM),–,–,–,70 to 80,≥ 90,–,–
CC(C)Oc1cc2c(cc1NC(=O)c1cnn3cccnc13)CN(C1CCN(CC3CCN(c4ccc5c(c4)C(=O)N([C@@H]4CCC(=O)NC4=O)C5=O)CC3)CC1)C2=O [Example 47],10 to 50,10 to 50,1 to 5,≥ 90,A (A represents a DC90 value <10.0 nM),–,–,–,80 to 90,80 to 90,–,–
"CC(C)Oc1cc2c(cc1NC(=O)c1cnn3cccnc13)CN([C@H]1CC[C@H](N(C)C3CN(c4cccc5c4n(C)c(=O)n5C4CCC(=O)NC4=O)C3)CC1)C2=O (stereo partly drawn) [Example 384, N-(2-((1r,4r)-4-((1-(1-(2,6-dioxopiperidin-3-yl)-3-methyl-2-oxo-2,3-dihydro-1H-benzo[d]imidazol-4-yl)azetidin-3-yl)(methyl)amino)cyclohexyl)-6-isopropoxy-1-oxoisoindolin-5-yl)pyrazolo[1,5-a]pyrimidine-3-carboxamide]",–,–,< 1,–,A (A represents a DC90 value <10.0 nM),≥ 100,< 10,A (A represents a Dmax value ≥90),–,–,C (C represents a Ymax value ≥70 and <80),A (A represents a Ymax value ≥90)
